Laboratory results published in US6417174B1, “Inhibitors of β-lactamases and uses therefor” (Northwestern University, priority 1997, dated 2002).
Like-named read-outs stand apart in the source and are kept apart here.

Experiments:
[1] = tested on: β-lactamase derepressed strain of Enterobacter cloacae (Ent-Der); test: microbe, parasite or virus in culture; assay type: cell-based; details: for MIC of ceftazidime plus inhibitor: Table 3A, proportion 4/1, given as CAZ/inhibitor; for MIC of ceftazidime plus inhibitor / MIC of inhibitor used alone without ceftazidime: Ent. Der.; for MIC of inhibitor used alone without ceftazidime: Table 3B; for MIC of amoxicillin plus inhibitor: Table 4A, proportion 4/1; for MIC of amoxicillin plus inhibitor / MIC of inhibitor used alone without amoxicillin: Ent-Der.; for MIC of inhibitor used alone without amoxicillin: Table 4B, not tested above 128 μg/ml, “256” indicates no inhibition of cell growth; for MIC of ceftazidime plus inhibitor: values in µg/ml
Protocol: (§1) After incubation, the growth of the cells was visually inspected. The minimum inhibitory concentration (MIC) is the lowest concentration where there no cell growth was observed.
(§2) The following strains were used: Enterobacter cloacae cell line with derepressed β-lactamase production (Ent-Der), and Escherichia coli RYC1000 (araD139 D lacU169 rpsL D rib7 thiA gyrA recA56) cell lines, harboring the plasmid pBGS19 (with no β-lactamase), or the β-lactamase containing plasmids pBGAmpC (AmpC β-lactamase from E. coli; Eco-AmpC), or pBGAmpC-MHN (AmpC β-lactamase from Enterobacter cloacae; Eco-AmpCEnt). […] TEM-10 and TEM-24 differ from TEM-1 due to the following point substitutions: TEM-10 (R164S, E240K); TEM-24 (L102K, L162S, S235T, A237K). TEM-10 and TEM-24 also differ from TEM-1 in being extended spectrum enzymes (i.e., they react with a greater range of substrates than TEM-1). Also tested were clinical isolates of Pseudomonas aeruginosa. All bacterial strains and plasmids are available from Jesus Blazquez and Fernando Baquero, Servicio de Microbiologia, Hospital Ramon y Cajal, National Institute of Health, Madrid, Spain.
(§3) Several ratios, including 1:1, 2:1, 4:1, and 1:3, of β-lactam antibiotic (amoxicillin (AX) or ceftazidime (CAZ)) to boronic acid compound were used in the assays. Tazobactam (TAZO), a clinically used β-lactamase inibitor, was used as a positive control.

[2] = tested on: E. coli RYC1000 harboring plasmid pBGTEM-24 (TEM-24 β-lactamase); test: microbe, parasite or virus in culture; assay type: cell-based, Escherichia coli; details: for MIC of ceftazidime plus inhibitor: Table 3A, proportion 4/1, given as CAZ/inhibitor; for MIC of inhibitor used alone without ceftazidime: Table 3B; for MIC of ceftazidime plus inhibitor: values in µg/ml
Protocol: as §1, §2, §3

[3] = tested on: E. coli RYC1000 harboring plasmid pBGAmpC-MHN (AmpC β-lactamase of Enterobacter cloacae); test: microbe, parasite or virus in culture; assay type: cell-based, Escherichia coli; details: for MIC of inhibitor used alone without ceftazidime: Table 3B; for MIC of inhibitor used alone without ceftazidime / MIC of ceftazidime plus inhibitor: AmpC-MHN; for MIC of ceftazidime plus inhibitor: Table 3A, proportion 4/1, given as CAZ/inhibitor; for MIC of amoxicillin plus inhibitor: Table 4A, EC-AmpCEn, proportion 4/1; for MIC of inhibitor used alone without amoxicillin: Table 4B, ECAmpCEn, not tested above 128 μg/ml, “256” indicates no inhibition of cell growth; for MIC of ceftazidime plus inhibitor: values in µg/ml
Protocol: as §1, §2, §3

[4] = tested on: E. coli RYC1000 harboring plasmid pBGS19 (no β-lactamase); test: microbe, parasite or virus in culture; assay type: cell-based, Escherichia coli; details: for MIC of ceftazidime plus inhibitor: Table 3A, proportion 4/1; for MIC of ceftazidime plus inhibitor / MIC of inhibitor used alone without ceftazidime: pBGS19; for MIC of inhibitor used alone without ceftazidime: Table 3B; for MIC of inhibitor used alone without amoxicillin: Table 4B, EC, not tested above 128 μg/ml, “256” indicates no inhibition of cell growth
Protocol: as §1, §2, §3

[5] = tested on: Ps. aeruginosa-2 (clinical isolate); test: Antibacterial activity, wider range of bacteria; assay type: cell-based, Pseudomonas aeruginosa; details: Table 6
Protocol: (§4) Bacterial cell culture testing was performed and interpreted following the guidelines of the National Committee for Clinical Laboratory Standards (National Committee for Clinical Laboratory Standards. Methods for Dilution Antimicrobial Susceptibility Tests for Bacteria that Grow Aerobically. Approved Standard M7-A3. National Committee for Clinical Laboratory Standards, Villanova, Pa. 1993). After incubation, the growth of the cells was visually inspected. The minimum inhibitory concentration (MIC) is the lowest concentration where there no cell growth was observed.
(§5) All bacterial strains and plasmids are available from Jesus Blazquez and Fernando Baquero, Servicio de Microbiologia, Hospital Ramon y Cajal National Institute of Health, Madrid, Spain.

[6] = tested on: Ps. aeruginosa-3 (clinical isolate); test: Antibacterial activity, wider range of bacteria; assay type: cell-based, Pseudomonas aeruginosa; details: Table 6
Protocol: as §4, §5

[7] = tested on: Citrobacter freundii derrepressed (clinical isolate); test: Antibacterial activity, wider range of bacteria; assay type: cell-based; details: Table 6
Protocol: as §4, §5

[8] = tested on: Enterobacter cloacae derrepressed (clinical isolate); test: Antibacterial activity, wider range of bacteria; assay type: cell-based; details: Table 6
Protocol: as §4, §5

[9] = tested on: Pseudomonas aeruginosa-1 (clinical isolate); test: Antibacterial activity, wider range of bacteria; assay type: cell-based; details: Table 6
Protocol: as §4, §5

[10] = tested on: E. coli derrepr. (clinical isolate); test: Antibacterial activity, wider range of bacteria; assay type: cell-based; details: Table 6
Protocol: as §4, §5

[11] = molecular target: AmpC β-lactamase from E. coli (Escherichia coli, UniProt P00811); test: biochemical; assay type: biochemical
[12] = tested on: E. coli RYC1000 harboring pBGTEM-1 producing TEM-1 β-lactamase (EC-T1); test: microbe, parasite or virus in culture; assay type: cell-based, Escherichia coli; details: EC-T1; for MIC of amoxicillin plus inhibitor: Table 4A, proportion 4/1; for MIC of inhibitor used alone without amoxicillin: Table 4B, not tested above 128 μg/ml, “256” indicates no inhibition of cell growth
Protocol: as §1, §2, §3

[13] = tested on: E. coli RYC1000 harboring pBGTEM-10 producing TEM-10 β-lactamase (EC-T10); test: microbe, parasite or virus in culture; assay type: cell-based, Escherichia coli; details: EC-T10; for MIC of amoxicillin plus inhibitor: Table 4A, proportion 4/1; for MIC of inhibitor used alone without amoxicillin: Table 4B, not tested above 128 μg/ml, “256” indicates no inhibition of cell growth
Protocol: as §1, §2, §3

[14] = tested on: E. coli RYC1000 harboring pBGAmpC-E. coli producing AmpC (ECR-AmpCEc); test: microbe, parasite or virus in culture; assay type: cell-based, Escherichia coli; details: ECR-AmpCEc; for MIC of amoxicillin plus inhibitor: Table 4A, proportion 4/1; for MIC of inhibitor used alone without amoxicillin: Table 4B, not tested above 128 μg/ml, “256” indicates no inhibition of cell growth
Protocol: as §1, §2, §3

[15] = tested on: E. coli RYC1000 harboring a plasmid coding for a mutant of AmpC from Enterobacter (ECR-AmpCEnM); test: microbe, parasite or virus in culture; assay type: cell-based, Escherichia coli; details: for MIC of amoxicillin plus inhibitor: Table 4A, ECR-AmpCEnM, proportion 4/1; for MIC of inhibitor used alone without amoxicillin: Table 4B, ECRAmpCEnM, not tested above 128 μg/ml, “256” indicates no inhibition of cell growth
Protocol: as §1, §2, §3

[16] = molecular target: T1, TEM-1 β-lactamase from E. coli (Escherichia coli, UniProt P62593); test: Inhibition of TEM-1 β-lactamase, spectrophotometric assay (FAP substrate); assay type: biochemical
T1 construct: gift: Natalie Strynadka, University of Alberta

[17] = Tables 2A/2B, pH 7.0, 25° C., 100 μM cephalothin, read-out: Ki E. coli AmpC

Chain of AmpC β-lactamase from E. coli (P00811 20-377): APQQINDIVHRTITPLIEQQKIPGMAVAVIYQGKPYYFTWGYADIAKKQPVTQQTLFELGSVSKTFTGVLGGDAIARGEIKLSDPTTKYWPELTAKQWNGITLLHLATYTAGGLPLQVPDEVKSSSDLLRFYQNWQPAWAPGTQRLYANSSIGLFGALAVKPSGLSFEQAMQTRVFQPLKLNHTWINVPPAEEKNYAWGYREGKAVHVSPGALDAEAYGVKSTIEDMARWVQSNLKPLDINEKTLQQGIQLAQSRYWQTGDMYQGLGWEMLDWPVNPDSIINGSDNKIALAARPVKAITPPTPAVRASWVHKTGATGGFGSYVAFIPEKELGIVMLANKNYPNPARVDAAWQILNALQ
T1 sequence (P62593 24-286 limits assumed): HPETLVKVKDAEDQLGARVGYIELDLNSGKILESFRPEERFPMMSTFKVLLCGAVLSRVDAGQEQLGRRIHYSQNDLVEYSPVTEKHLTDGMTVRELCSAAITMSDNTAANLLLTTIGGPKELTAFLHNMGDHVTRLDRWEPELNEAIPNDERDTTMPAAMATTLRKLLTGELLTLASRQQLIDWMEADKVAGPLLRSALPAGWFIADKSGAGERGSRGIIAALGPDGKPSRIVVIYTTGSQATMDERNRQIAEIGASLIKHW

Row | Structure (SMILES) | MIC of ceftazidime plus inhibitor [1] | MIC of inhibitor used alone without ceftazidime [1] | MIC of ceftazidime plus inhibitor [2] | MIC of inhibitor used alone without ceftazidime [2] | MIC of inhibitor used alone without ceftazidime [3] | MIC of ceftazidime plus inhibitor [4] | MIC of inhibitor used alone without ceftazidime [4] | Ki [11, 17] | MIC of amoxicillin plus inhibitor [1] | MIC of inhibitor used alone without amoxicillin [1] | MIC of amoxicillin plus inhibitor [12] | MIC of inhibitor used alone without amoxicillin [12] | MIC of amoxicillin plus inhibitor [13] | MIC of inhibitor used alone without amoxicillin [13] | MIC of ceftazidime plus inhibitor [3] | MIC of amoxicillin plus inhibitor [3] | MIC of inhibitor used alone without amoxicillin [3] | MIC of amoxicillin plus inhibitor [14] | MIC of inhibitor used alone without amoxicillin [14] | MIC of inhibitor used alone without amoxicillin [4] | also measured
1 | OB(O)c1cc2ccccc2s1 [BZBTH2B, benzo[b]thiophene-2-boronic acid] | 32/8 | 512 µg/mL | 128/32 | 512 µg/mL | 512 µg/mL | <0.25 µg/mL | 512 µg/mL |  |  |  |  |  |  |  |  |  |  |  |  |  | MIC, agent alone (CAZ alone / BZB only) [5]: 512; MIC, agent alone (CAZ alone / BZB only) [6]: 512; MIC, agent alone (CAZ alone / BZB only) [7]: 128; MIC, agent alone (CAZ alone / BZB only) [8]: 128; MIC, agent alone (CAZ alone / BZB only) [9]: 512; MIC, agent alone (CAZ alone / BZB only) [10]: 128
2 | OB(O)c1cc2ccccc2c2ccccc12 [9PHNB, 9-Phenanthreneboronic acid] | 512/128 | >512 µg/mL | 256/64 | 128 µg/mL | 256 µg/mL | <0.25 µg/mL | 128 µg/mL | 12.6 µM | 512 µg/mL | 256 µg/mL | 512 µg/mL | 256 µg/mL | 512 µg/mL | 256 µg/mL | 8/2 | 256 µg/mL | 256 µg/mL | 512 µg/mL | 256 µg/mL | 256 µg/mL | dissociation constant relative to MAPB (AmpC) ([11]; compared with MAPB): two to three-fold worse (higher); MIC of amoxicillin plus inhibitor [15]: 64 µg/mL; MIC of inhibitor used alone without amoxicillin [15]: 256 µg/mL; Ki ([16]; Tables 2A/2B, pH 7.0, 25° C., 100 μM FAP, N.I. = no inhibition observed at an inhibitor concentration of 100 μM, read-out: Ki E. coli TEM-1): 31 µM
3 | OB(O)c1ccc(-c2ccc(B(O)O)cc2)cc1 [BIPD, 4,4′-biphenyldiboronic acid] | 128/32 | >256 µg/mL | 256/64 | >256 µg/mL | >256 µg/mL | <0.12 µg/mL | >256 µg/mL | 0.6 µM | 256 µg/mL | 256 µg/mL | 256 µg/mL | 256 µg/mL | 256 µg/mL | 256 µg/mL | 8/2 | 128 µg/mL | 256 µg/mL | 128 µg/mL | 128 µg/mL | 256 µg/mL | Ki ([11]; Example 1, read-out: Ki for AmpC): 0.18 ± 0.02 µM; MIC of amoxicillin plus inhibitor [15]: 128 µg/mL; MIC of inhibitor used alone without amoxicillin [15]: 256 µg/mL; Ki [16]: > 100 µM
